Results from PubChem BioAssay (NCI).
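Five concentrations, 48 hours, 96-well plates. TGI: concentration producing complete growth inhibition.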

How the values were obtained:
Experiment in all cases: NCI tumour cell line growth inhibition, 48 h
SNB-19 CNS = tested on: SNB-19 CNS
SF-295 CNS = tested on: SF-295 CNS
SK-MEL-5 melanoma = tested on: SK-MEL-5 melanoma
MCF7 breast = tested on: MCF7 breast
K-562 leukemia = tested on: K-562 leukemia
MDA-N = tested on: MDA-N
786-0 renal = tested on: 786-0 renal
COLO 205 colon = tested on: COLO 205 colon
HCC-2998 colon = tested on: HCC-2998 colon
NCI/ADR-RES ovarian = tested on: NCI/ADR-RES ovarian
EKVX NSCLC = tested on: EKVX NSCLC
HCT-15 colon = tested on: HCT-15 colon
SK-OV-3 ovarian = tested on: SK-OV-3 ovarian
RXF 393 renal = tested on: RXF 393 renal
MDA-MB-435 = tested on: MDA-MB-435
SK-MEL-28 melanoma = tested on: SK-MEL-28 melanoma

N#CCN(Cc1ccccc1)[C@@H]1CCC[C@]1(O)C#Cc1ccc2c(c1)OCO2
TGI (SNB-19 CNS): 41.5 µM
TGI (SF-295 CNS): 41.8 µM
TGI (SK-MEL-5 melanoma): 30 µM
TGI (MCF7 breast): 37.9 µM
TGI (K-562 leukemia): 60.4 µM
TGI (MDA-N): 34.2 µM
TGI (786-0 renal): 29.2 µM
TGI (COLO 205 colon): 32.3 µM
TGI (HCC-2998 colon): 31.5 µM
TGI (NCI/ADR-RES ovarian): 51.8 µM
TGI (EKVX NSCLC): 55.5 µM
TGI (HCT-15 colon): 66.7 µM
TGI (SK-OV-3 ovarian): 90.1 µM
TGI (RXF 393 renal): 30.3 µM
TGI (MDA-MB-435): 42.1 µM
TGI (SK-MEL-28 melanoma): 33.3 µM

O=C(O)CO/N=C1/C(c2c(O)[nH]c3ccccc23)=Nc2ccccc21
TGI (SNB-19 CNS): > 100 µM
TGI (SF-295 CNS): > 100 µM
TGI (SK-MEL-5 melanoma): 80 µM
TGI (MCF7 breast): > 100 µM
TGI (K-562 leukemia): > 100 µM
TGI (MDA-N): > 100 µM
TGI (786-0 renal): > 100 µM
TGI (COLO 205 colon): > 100 µM
TGI (HCC-2998 colon): > 100 µM
TGI (NCI/ADR-RES ovarian): > 100 µM
TGI (EKVX NSCLC): > 100 µM
TGI (HCT-15 colon): > 100 µM
TGI (SK-OV-3 ovarian): 68.1 µM
TGI (RXF 393 renal): 52.7 µM
TGI (MDA-MB-435): > 100 µM
TGI (SK-MEL-28 melanoma): > 100 µM

CC(=O)NC1C(OCc2ccccc2)OC(CO)C(O)C1OCC(=O)N1CCCC1C(=O)NC(CCC(=O)NCCCCCNc1c2ccccc2nc2cccc([N+](=O)[O-])c12)C(N)=O (stereo not drawn)
TGI (SNB-19 CNS): 0.493 µM
TGI (SF-295 CNS): 0.724 µM
TGI (SK-MEL-5 melanoma): 0.0386 µM
TGI (MCF7 breast): 0.502 µM
TGI (K-562 leukemia): 0.0475 µM
TGI (MDA-N): 0.0499 µM
TGI (786-0 renal): 0.924 µM
TGI (COLO 205 colon): 0.039 µM
TGI (HCC-2998 colon): 0.027 µM
TGI (NCI/ADR-RES ovarian): 1.09 µM
TGI (EKVX NSCLC): 0.633 µM
TGI (HCT-15 colon): 0.0906 µM
TGI (SK-OV-3 ovarian): 0.538 µM
TGI (RXF 393 renal): 0.0253 µM
TGI (MDA-MB-435): 0.033 µM
TGI (SK-MEL-28 melanoma): 0.11 µM

CC(C)OP(=O)(OC(C)C)C(Nc1cccc(C(F)(F)F)c1)c1ccccc1 (stereo not drawn)
TGI (SNB-19 CNS): > 100 µM
TGI (SF-295 CNS): > 100 µM
TGI (SK-MEL-5 melanoma): 76.5 µM
TGI (MCF7 breast): > 100 µM
TGI (K-562 leukemia): > 100 µM
TGI (MDA-N): > 100 µM
TGI (786-0 renal): > 100 µM
TGI (COLO 205 colon): 84 µM
TGI (HCC-2998 colon): > 100 µM
TGI (NCI/ADR-RES ovarian): > 100 µM
TGI (EKVX NSCLC): > 100 µM
TGI (HCT-15 colon): > 100 µM
TGI (SK-OV-3 ovarian): > 100 µM
TGI (RXF 393 renal): > 100 µM
TGI (MDA-MB-435): > 100 µM
TGI (SK-MEL-28 melanoma): > 100 µM

CC(Cc1ccc2c(c1)OCO2)N(C)C(=O)C1=CCN(C)CC1 (stereo not drawn)
TGI (SNB-19 CNS): > 100 µM
TGI (SF-295 CNS): > 100 µM
TGI (SK-MEL-5 melanoma): > 100 µM
TGI (MCF7 breast): > 100 µM
TGI (K-562 leukemia): > 100 µM
TGI (MDA-N): > 100 µM
TGI (786-0 renal): > 100 µM
TGI (COLO 205 colon): > 100 µM
TGI (HCC-2998 colon): > 100 µM
TGI (NCI/ADR-RES ovarian): > 100 µM
TGI (EKVX NSCLC): > 100 µM
TGI (HCT-15 colon): > 100 µM
TGI (SK-OV-3 ovarian): > 100 µM
TGI (RXF 393 renal): > 100 µM
TGI (MDA-MB-435): > 100 µM
TGI (SK-MEL-28 melanoma): > 100 µM

COC(=O)C1(C)OC(C)=NC1(C(=O)OC)C(=O)OC (stereo not drawn)
TGI (SNB-19 CNS): > 100 µM
TGI (SF-295 CNS): > 100 µM
TGI (SK-MEL-5 melanoma): > 100 µM
TGI (MCF7 breast): > 100 µM
TGI (K-562 leukemia): > 100 µM
TGI (MDA-N): > 100 µM
TGI (786-0 renal): > 100 µM
TGI (COLO 205 colon): > 100 µM
TGI (HCC-2998 colon): > 100 µM
TGI (NCI/ADR-RES ovarian): > 100 µM
TGI (EKVX NSCLC): > 100 µM
TGI (HCT-15 colon): > 100 µM
TGI (SK-OV-3 ovarian): > 100 µM
TGI (RXF 393 renal): > 100 µM
TGI (MDA-MB-435): > 100 µM
TGI (SK-MEL-28 melanoma): > 100 µM

O=C(O)CCc1nc2cc3ccccc3cc2[nH]c1=O
TGI (SNB-19 CNS): > 100 µM
TGI (SF-295 CNS): > 100 µM
TGI (SK-MEL-5 melanoma): > 100 µM
TGI (MCF7 breast): > 100 µM
TGI (K-562 leukemia): > 100 µM
TGI (MDA-N): > 100 µM
TGI (786-0 renal): > 100 µM
TGI (COLO 205 colon): > 100 µM
TGI (HCC-2998 colon): > 100 µM
TGI (NCI/ADR-RES ovarian): > 100 µM
TGI (EKVX NSCLC): > 100 µM
TGI (HCT-15 colon): > 100 µM
TGI (SK-OV-3 ovarian): > 100 µM
TGI (RXF 393 renal): > 100 µM
TGI (MDA-MB-435): > 100 µM
TGI (SK-MEL-28 melanoma): > 100 µM

COc1cccc(C(=O)N[C@@H]2[C@H](O)[C@@H](CO)O[C@H]2n2cnc3c(N)ncnc32)c1
TGI (SNB-19 CNS): > 100 µM
TGI (SF-295 CNS): > 100 µM
TGI (SK-MEL-5 melanoma): > 100 µM
TGI (MCF7 breast): > 100 µM
TGI (K-562 leukemia): > 100 µM
TGI (MDA-N): > 100 µM
TGI (786-0 renal): > 100 µM
TGI (COLO 205 colon): > 100 µM
TGI (HCC-2998 colon): > 100 µM
TGI (NCI/ADR-RES ovarian): > 100 µM
TGI (EKVX NSCLC): > 100 µM
TGI (HCT-15 colon): > 100 µM
TGI (SK-OV-3 ovarian): > 100 µM
TGI (RXF 393 renal): > 100 µM
TGI (MDA-MB-435): > 100 µM
TGI (SK-MEL-28 melanoma): > 100 µM
